# Source: patent US9334280B2, “Synthetic rigidin analogues as anticancer agents, salts, solvates and prodrugs thereof, and method of producing same” (New Mexico Technical Research Foundation, priority 2012, dated 2016)
# Tests used:
# [1] = test system: HeLa cells; experiment: Flow cytometric cell cycle analysis (Vybrant Orange); assay type: cell-based, human; conditions: 24 h
# Experimental: To assess the effects of the analogues on the cell cycle, cell cycle analysis was performed. 70-80% confluent HeLa cells were trypsinized and seeded at an initial density of 2×10^5 cell per well into 6 well plates in DMEM supplemented with 10% FBS, 100 mg/L penicillin G and 100 mg/L streptomycin. The cells were allowed to adhere overnight and before treatment with compounds of Formula I at concentrations ranging from 0.1 to 10 microM. After 24 hrs, the cells were washed 3× with DMEM, trypsinized, pelleted, and re-suspended in 200 microL of culture medium containing 10 microM (2 microL/mL) vybrant orange dye. The samples in the labeling solution were transferred into Falcon tubes and incubated in a water bath for 30 mins at 37° C. The samples were then analyzed using a Becton Dickinson FACscan flow cytometer with CellQuest software. A 488 nm laser was utilized using parameters that can be found in Appendix B; 10,000 events were collected for analysis. Cells treated with 0.1% DMSO were used as a negative control and cells treated with colchicine were used as a positive control.
# In further anticancer evaluation of compounds of Formula I cell cycle analysis was performed using the cell permeable DNA binding dye Vybrant Orange. In a normal population, cells are distributed among the three major phases of the cell cycle, G0/G1 in which there is one set of paired chromosomes per cell (2n), followed by the S or synthesis phase in which DNA is synthesized in preparation for division (there is a variable amount of DNA present during this phase) and finally G2/M phase in which the chromosomes of each cell have now been duplicated (4n). This DNA content can be measured using fluorescent DNA selective probes such as Vybrant Orange that produce signals that are proportional to DNA mass per cell. This dye interacts with double stranded DNA (dsDNA) in living cells and becomes fluorescent upon binding and thus can be used to track DNA content as cells progress through the various phases of the cell cycle using flow cytometry. Cell cycle analysis was performed on HeLa cells using Rig8 at various concentrations above and below the respective GI50. Since colchicine is a known antimitotic drug, it was utilized as a positive control, while HeLa cells treated with 0.1% DMSO were used as a negative control. FIG. 6 illustrates the results of this analysis using Rig 8 on HeLa cells.
# [2] = test system: Hs683 anaplastic oligodendroglioma cells; experiment: MTT antiproliferative assay, Hs683; assay type: cell-based; conditions: Homo sapiens, Hs 683, Table 2, 48 h, read-out: GI50 in vitro values, Hs683
# Experimental: (§1) To evaluate antiproliferative properties of the compounds of Formula I, mitochondrial dehydrogenase activities were measured using the MTT assay. The cell lines were prepared by trypsinizing and seeding […] cells per well into microplates. All compounds were reconstituted in dimethyl sulfoxide (DMSO) at a concentration of either 100 mM or 25 mM prior to treatment. The cells were grown for 24 hrs before treatment at concentrations ranging from 0.004 to 100 microM and incubated for 48 hrs in 200 microL media. 20 microL of MTT reagent in serum free medium (5 mg/mL) was added to each well and incubated further for 2 hrs. Media was removed and the resulting formazan crystals were re-solubilized in 100 microL of DMSO and the optical density (OD) was measured using a Thermomax Molecular Device plate reader at a wavelength of 490 nm. The experiments were performed in quadruplicate and repeated at least twice for each compound per cell line. Cells treated with 0.1% DMSO were used as a negative control, while phenyl arsine oxide (PAO) was used as a positive killing control.
# [3] = test system: A549 non-small-cell lung cancer cells; experiment: MTT antiproliferative assay, A549; assay type: cell-based; conditions: Homo sapiens, Table 2, 48 h, read-out: GI50 in vitro values, A549
# Experimental: as §1
# (§2) Human cancer cell lines were obtained from the American Type Culture Collection (ATCC, Manassas, Va., USA), the European Collection of Cell Culture (ECACC, Salisbury, UK) and the Deutsche Sammlung von Mikroorganismen and Zellkulturen (DSMZ, Braunschweig, Germany). Human cervical adenocarcinoma HeLa cells were cultured in DMEM supplemented with 10% fetal bovine serum (FBS). Human mammary carcinoma MCF-7 cells were cultured in RPMI supplemented with 10% FBS. The U87 and U373 cells were cultured in DMEM culture medium (Lonza code 12-136F, Vervier, Belgium), while the SKMEL-28 and A549 cells were cultured in RPMI culture medium (Lonza; code 12-115F) supplemented with 10% heat-inactivated FBS (Lonza, FBS South America code DE14-801F). […] All cell lines were cultured in T25 flasks, maintained and grown at 37° C., 95% humidity, 5% CO2.
# (§3) To evaluate antiproliferative properties of the synthesized compounds, the MTT assay was used. The cell lines were assessed by trypsinizing each cell line and seeding 4×10^3 cells per well into 96-well plates. All compounds were dissolved in DMSO at a concentration of either 100 mM or 50 mM prior to cell treatment. The cells were grown for 24 h and then treated with compounds at concentrations ranging from 0.04 to 100 μM and incubated for 48 h in 200 μL media. 20 μL of MTT reagent in serum free medium (5 mg/mL) was added to each well and incubated further for 2 h. Media was removed, and the resulting formazan crystals were re-solubilized in 200 μL of DMSO. A490 was measured using a Thermomax Molecular Device plate reader. The experiments were performed in quadruplicate and repeated at least twice for each compound per cell line. Cells treated with 0.1% DMSO were used as a control, and 1 μM phenyl arsine oxide (PAO) was used as a positive killing control.
# [4] = test system: U373 glioblastoma cells; experiment: MTT antiproliferative assay, U373; assay type: cell-based, human; conditions: Homo sapiens, U373 MG; Table 2; 48 h, MTT; read-out: GI50 in vitro values, U373
# Experimental: as §1, §2
# as §3, with “Cells treated with 0.1% DMSO were used as a control, and 1 μM phenyl arsine oxide (PAO) was used as a positive killing control.” left out
# [5] = test system: SKMEL-28 melanoma cells; experiment: MTT antiproliferative assay, SKMEL-28; assay type: cell-based, human; conditions: Homo sapiens, SK-MEL-28; Table 2; 48 h, MTT; read-out: GI50 in vitro values, SKMEL-28
# Experimental: as §1, §2
# as §3, with “Cells treated with 0.1% DMSO were used as a control, and 1 μM phenyl arsine oxide (PAO) was used as a positive killing control.” left out
smiles,measurement,setting,value
"O=C(c1ccccc1)c1[nH]c2[nH]cnc(=O)c2c1-c1cc(Br)cc(Br)c1 [Rig8, 6-Benzoyl-5-(3,5-dibromophenyl)-1H-pyrrolo[2,3-d]pyrimidin-4(7H)-one]","% Relative DNA Content, G0/G1",[1]; 0.1 μM,51.5 ± 4.3%
same,"% Relative DNA Content, G2/M",[1]; 0.1 μM,36.6 ± 4.6%
same,"% Relative DNA Content, S",[1]; 0.1 μM,14.1 ± 3.9%
same,"% Relative DNA Content, G0/G1",[1]; 1 μM,12.7 ± 2.2%
same,"% Relative DNA Content, G2/M",[1]; 1 μM,73.4 ± 5.3%
same,"% Relative DNA Content, S",[1]; 1 μM,9.7 ± 2.4%
same,"% Relative DNA Content, G0/G1",[1]; 10 μM,5.6 ± 2.2%
same,"% Relative DNA Content, G2/M",[1]; 10 μM,85.9 ± 2.1%
same,"% Relative DNA Content, S",[1]; 10 μM,5.3 ± 2.4%
same,cell cycle arrest (in words),[1]; 0.1-10 μM,dose-dependent cell cycle arrest in the G2/M phase
same,GI50,[2],20 nM
same,GI50,[3],30 nM
same,GI50,[4],30 nM
same,GI50,[5],20 nM
